# Measurements reported in ChEMBL document CHEMBL3751764, “Synthesis and in vitro antiproliferative activity of novel pyrazolo[3,4-d]pyrimidine derivatives” (Medchemcomm, 2015).
# Calls of active or inactive are those of the source. No cut-off for these calls is given here.
# Key:
# NCI-H226 = test: Cytotoxicity against human NCI-H226 cells after 72 hrs by SRB assay; format: functional; details: NCI-H226, 72 h
# NCI-H460 = test: Cytotoxicity against human NCI-H460 cells after 72 hrs by SRB assay; format: functional; details: NCI-H460, 72 h
# A549 [1] = test: Cytotoxicity against human A549 cells after 72 hrs by SRB assay; format: functional, cell-based; details: A549, 72 h
# [2] = Cytotoxicity against human SW620 cells after 72 hrs by SRB assay; format: functional; details: SW-620, 72 h
# [3] = Cytotoxicity against human HCC2998 cells after 72 hrs by SRB assay; format: functional; details: HCC 2998, 72 h
# [4] = Cytotoxicity against human NCI-ADR-RES cells after 72 hrs by SRB assay; format: functional
# [5] = Cytotoxicity against human OVCAR5 cells after 72 hrs by SRB assay; format: functional; details: OVCAR-5, 72 h
# A549 [6] = test: Downregulation of cyclin D1 expression in human A549 cells by immunohistochemical analysis relative to control; format: functional
# [7] = Cytotoxicity against human RPMI8226 cells after 72 hrs by SRB assay; format: functional; details: RPMI-8226, 72 h
# NCI-H322M = test: Cytotoxicity against human NCI-H322M cells after 72 hrs by SRB assay; format: functional
# [8] = Cytotoxicity against human SF295 cells after 72 hrs by SRB assay; format: functional; details: SF-295, 72 h
# ACHN = test: Cytotoxicity against human ACHN cells after 72 hrs by SRB assay; format: functional
# [9] = Cytotoxicity against human MOLT4 cells after 72 hrs by SRB assay; format: functional; details: MOLT-4, 72 h
# SK-MEL-28 = test: Cytotoxicity against human SK-MEL-28 cells after 72 hrs by SRB assay; format: functional; details: SK-MEL-28, 72 h
# SK-MEL-5 = test: Cytotoxicity against human SK-MEL-5 cells after 72 hrs by SRB assay; format: functional; details: SK-MEL-5, 72 h
# SN12C = test: Cytotoxicity against human SN12C cells after 72 hrs by SRB assay; format: functional
# [10] = Cytotoxicity against human BT549 cells after 72 hrs by SRB assay; format: functional; details: BT-549, 72 h
# [11] = Cytotoxicity against human RXF393 cells after 72 hrs by SRB assay; format: functional; details: RXF 393, 72 h
# [12] = Cytotoxicity against human COLO205 cells after 72 hrs by SRB assay; format: functional; details: COLO 205, 72 h
# [13] = Cytotoxicity against human TK10 cells after 72 hrs by SRB assay; format: functional; details: TK-10, 72 h
# CCRF-CEM = test: Cytotoxicity against human CCRF-CEM cells after 72 hrs by SRB assay; format: functional
# MCF7 = test: Cytotoxicity against human MCF7 cells after 72 hrs by SRB assay; format: functional, cell-based; details: MCF7, 72 h
# [14] = Cytotoxicity against human UACC257 cells after 72 hrs by SRB assay; format: functional; details: UACC-257, 72 h
# A498 = test: Cytotoxicity against human A498 cells after 72 hrs by SRB assay; format: functional; details: A498, 72 h
# [15] = Cytotoxicity against human HOP62 cells after 72 hrs by SRB assay; format: functional; details: HOP-62, 72 h
# [16] = Cytotoxicity against human DU145 cells after 72 hrs by SRB assay; format: functional; details: DU-145, 72 h
# A549 [17] = test: Cell cycle arrest in human A549 cells assessed as accumulation at G0/G1 phase at IC50 after 48 hrs by FACS flow cytometric analysis relative to control; format: functional
# T47D = test: Cytotoxicity against human T47D cells after 72 hrs by SRB assay; format: functional
# KM12 = test: Cytotoxicity against human KM12 cells after 72 hrs by SRB assay; format: functional; details: KM12, 72 h
# Malme-3M = test: Cytotoxicity against human MALME-3M cells after 72 hrs by SRB assay; format: functional
# [18] = Cytotoxicity against human Caki1 cells after 72 hrs by SRB assay; format: functional; details: CAKI-1, 72 h
# M14 = test: Cytotoxicity against human M14 cells after 72 hrs by SRB assay; format: functional; details: M14, 72 h
# SR = test: Cytotoxicity against human SR cells after 72 hrs by SRB assay; format: functional
# [19] = Cytotoxicity against human HCT15 cells after 72 hrs by SRB assay; format: functional; details: HCT-15, 72 h
# [20] = Cytotoxicity against human Hs 578T cells after 72 hrs by SRB assay; format: functional
# [21] = biological target: Platelet-derived growth factor receptor (Homo sapiens) (UniProt P09619+P16234); test: Inhibition of PDGFR (unknown origin) at 10 uM after 20 to 40 mins by liquid scintillation counting analysis in presence of […]; format: protein-complex assay
# [22] = read-out: LC50 (the source's name)
smiles,measurement,setting,value
O=C(NC1CCCCC1)c1ccc(Nc2ncnc3c2cnn3-c2ccccc2)cc1,GI50,NCI-H226,3.35 µM
same,TGI,NCI-H226,21.5 µM
same,CC50,NCI-H226; [22],> 100 µM
same,GI50,NCI-H460,7.09 µM
same,TGI,NCI-H460,> 100 µM
same,CC50,NCI-H460; [22],> 100 µM
same,GI50,A549 [1],4.38 µM
same,IC50,A549 [1],66.6 µM
same,LC50,A549 [1],> 100 µM
same,TGI,A549 [1],51.3 µM
same,GI50,[2],> 100 µM
same,TGI,[2],> 100 µM
same,CC50,[2]; [22],> 100 µM
same,GI50,[3],> 100 µM
same,TGI,[3],> 100 µM
same,CC50,[3]; [22],> 100 µM
same,GI50,[4],7.06 µM
same,TGI,[4],> 100 µM
same,CC50,[4]; [22],> 100 µM
same,GI50,[5],15.2 µM
same,TGI,[5],95.2 µM
same,CC50,[5]; [22],> 100 µM
same,Activity,A549 [6],51%
same,GI50,[7],> 100 µM
same,TGI,[7],> 100 µM
same,CC50,[7]; [22],> 100 µM
same,GI50,NCI-H322M,15.8 µM
same,TGI,NCI-H322M,> 100 µM
same,CC50,NCI-H322M; [22],> 100 µM
same,GI50,[8],2.98 µM
same,TGI,[8],13.3 µM
same,CC50,[8]; [22],43.1 µM
same,GI50,ACHN,3.32 µM
same,TGI,ACHN,11 µM
same,CC50,ACHN; [22],37 µM
same,GI50,[9],75.6 µM
same,TGI,[9],> 100 µM
same,CC50,[9]; [22],> 100 µM
same,GI50,SK-MEL-28,3.79 µM
same,TGI,SK-MEL-28,> 100 µM
same,CC50,SK-MEL-28; [22],> 100 µM
same,GI50,SK-MEL-5,21.7 µM
same,TGI,SK-MEL-5,> 100 µM
same,CC50,SK-MEL-5; [22],> 100 µM
same,GI50,SN12C,8.26 µM
same,TGI,SN12C,> 100 µM
same,CC50,SN12C; [22],> 100 µM
same,GI50,[10],5.69 µM
same,TGI,[10],26.4 µM
same,CC50,[10]; [22],91.9 µM
same,GI50,[11],2.43 µM
same,TGI,[11],9.33 µM
same,CC50,[11]; [22],56.9 µM
same,GI50,[12],12.5 µM
same,TGI,[12],> 100 µM
same,CC50,[12]; [22],> 100 µM
same,GI50,[13],16.5 µM
same,TGI,[13],49.5 µM
same,CC50,[13]; [22],> 100 µM
same,GI50,CCRF-CEM,> 100 µM
same,TGI,CCRF-CEM,> 100 µM
same,CC50,CCRF-CEM; [22],> 100 µM
same,GI50,MCF7,74.1 µM
same,LC50,MCF7,> 100 µM
same,TGI,MCF7,> 100 µM
same,GI50,[14],6.42 µM
same,TGI,[14],> 100 µM
same,CC50,[14]; [22],> 100 µM
same,GI50,A498,3.83 µM
same,TGI,A498,39.4 µM
same,CC50,A498; [22],> 100 µM
same,GI50,[15],2.62 µM
same,TGI,[15],8.78 µM
same,CC50,[15]; [22],37.3 µM
same,GI50,[16],10.6 µM
same,TGI,[16],48.1 µM
same,CC50,[16]; [22],> 100 µM
same,Activity,A549 [17],11.9%
same,GI50,T47D,20.2 µM
same,TGI,T47D,> 100 µM
same,CC50,T47D; [22],> 100 µM
same,GI50,KM12,57.8 µM
same,TGI,KM12,> 100 µM
same,CC50,KM12; [22],> 100 µM
same,GI50,Malme-3M,1.97 µM
same,TGI,Malme-3M,4.94 µM
same,CC50,Malme-3M; [22],21 µM
same,GI50,[18],14 µM
same,TGI,[18],> 100 µM
same,CC50,[18]; [22],> 100 µM
same,GI50,M14,18.3 µM
same,TGI,M14,> 100 µM
same,CC50,M14; [22],> 100 µM
same,GI50,SR,11.6 µM
same,TGI,SR,49.1 µM
same,CC50,SR; [22],> 100 µM
same,GI50,[19],99.3 µM
same,TGI,[19],> 100 µM
same,CC50,[19]; [22],> 100 µM
same,GI50,[20],3.37 µM
same,TGI,[20],34.2 µM
same,CC50,[20]; [22],> 100 µM
O=c1sc2cc(Nc3ncnc4c3cnn4-c3ccccc3)ccc2n1Cc1ccc(Cl)cc1,inhibition,[21],inactive
